25 molecules from US11767305B2, “Advantageous benzofuran compositions for mental disorders or enhancement” (Tactogen Inc, priority 2020, dated 2023) can be followed below.

Data set [1] concerns the target T1, serotonin (5-HT) transporter (SERT) (Rattus norvegicus (Rat), UniProt P31652). In words: Rat synaptosome SERT [3H]5-HT uptake inhibition assay. The following applies: 5 nM [3H]5-HT.
A further data set concerns the target 5-HT1BR (Homo sapiens (Human), UniProt P28222). In words: 5-HT1BR cAMP secondary messenger agonist assay (HitHunter, CHO-K1). Type of data set: cell-based. An excerpt: The 5-HT1BR cAMP secondary messenger agonist assay used a panel of CHO-K1 cell lines stably expressing non-tagged GPCRs that endogenously signal through cAMP. Hit Hunter® cAMP assays monitored the activation of a GPCR via Gi and Gs secondary messenger signaling in a homogenous, non-imaging assay format using DiscoverX Enzyme Fragment Complementation (EFC) with β-galactosidase as the functional endpoint.
The enzyme was split into two complementary portions: Enzyme Acceptor (EA) and Enzyme Donor (ED). Exogenously introduced ED fused to cAMP (ED-cAMP) competed with endogenously generated cAMP for binding to an anti-cAMP-specific antibody. Active β-galactosidase was formed by complementation of exogenous EA to any unbound ED-cAMP.
Cell lines were expanded from freezer stocks according to standard procedures. Cells were seeded in a total volume of 20 μL into white walled, 384-well microplates and incubated at 37° C. for the appropriate time prior to testing. cAMP modulation was determined using the DiscoverX HitHunter cAMP XS+ assay.
For agonist determination, cells were incubated with sample (in the presence of EC80 forskolin to induce response if measuring Gi secondary messenger signaling). Media was aspirated from cells and replaced with 15 μL 2:1 HBSS/10 mM Hepes:cAMP XS+ Ab reagent. Intermediate dilution of sample stocks was performed to generate 4×sample in assay buffer (optionally containing 4×EC80 forskolin). 5 μL of 4×sample was added to cells and incubated at 37° C. or room temperature for 30 or 60 minutes, as appropriate. Final assay vehicle concentration was 1%.

Data set [2] deals with human 5-HT transporter (hSERT) (Homo sapiens (Human), UniProt P31645). Description: Human serotonin transporter  assay ([3H]imipramine radioligand, CHO cells). The class given is binding. The following applies: for IC50: 2 nM [3H]imipramine; for Ki: Cheng Prusoff equation. As to the method:
Benzofuran derivatives were evaluated for inhibiting the human 5-HT transporter (hSERT) as expressed in CHO cells using an antagonist radioligand assay (Tatsumi, M. et al. (1999), Eur. J Pharmacol., 368: 277-283). […] Test compounds were assayed in three trials at […], and 0.94868 μM.

Data set [3] has as its target T1, serotonin (5-HT) transporter (SERT). In words: Rat synaptosome SERT [3H]5-HT release assay. The following applies: 5 nM [3H]5-HT.
Data set [4] is described as follows: Salt screening experiments (PXRD result). The class given is physicochemical. The following applies: S-5-MAPB Pure Enantiomer (Pattern 1A Enantiomer) + counterion 1:1 molar ratio, 40° C.
Where [5] appears, read: Inhibition of [3H]5-HT Uptake at SERT IC50 (nM).
The mark [6] stands for this setting: [3H]5-HT release via SERT EC50 (nM).
[7] abbreviates: read-out: Inhibition of [3H]5-HT Uptake at SERT IC50.
[8] abbreviates: read-out: [3H]5-HT release via SERT EC50.

Counter-ions that a name gives are not always drawn. Like-named read-outs stand apart in the source and are kept apart here.

Usually IC50 stands for the concentration that inhibits the measured activity by half. As a reminder, the EC50 is the concentration that produces a half-maximal response. In general, Ki refers to the equilibrium dissociation constant of an inhibitor or competing ligand from its target. On to `CNC(C)C(=O)c1ccc2ccoc2c1` (single isomer, unassigned; (-)) [(−)-BK-6-MAPB, 1-(benzofuran-6-yl)-2-(methylamino) propan-1-one], for which the IC50 in data set [1] (setting [5]) came out at 275 ± 13 nM; in data set [2] (SERT IC50 (μM)), 12 µM. In addition, on 5-HT1BR, the “Hill Coef.” value is listed as 0.8339. The results for the EC50 (at 5-HT1BR (5-HT1BR EC50 (μM)); in data set [3] (setting [6])) were 0.288 µM and 72.2 ± 16.6 nM, respectively. In addition, the Ki in data set [2] (SERT Ki (μM)) was 5.4 µM.

In the case of `O=P(O)(O)O` [Compound H3PO4], the “PXRD Result” value in data set [4] (solvent MeOH:water 90:10) is given as “N/A (gel)”.

As for “1-(benzofuran-6-yl)-N-methylbutan-2-amine [Compound R-6-MBPB]”, the IC50 in data set [1] (setting [7]) was 702 ± 262 nM; in data set [2] (read-out: SERT IC50) it was 5.7 µM. Also, in data set [2] (read-out: SERT Ki), the Ki was 2.6 µM. For the same molecule, the EC50 in data set [3] (setting [8]) turned out to be 172 ± 82.2 nM.

For `O=S(=O)(O)O` [Compound H2SO4], the “PXRD Result” value in data set [4] (solvent Acetone), in data set [4] (solvent EtOH:water 90:10), in data set [4] (solvent MeOH:water 90:10) and in data set [4] (solvent THF) was “N/A (gel)” throughout.

At 5-HT1BR (5-HT1BR EC50 (μM)), `CCC(NC)C(=O)c1ccc2ccoc2c1` (racemic) [rac-BK-6-MBPB, 1-(benzofuran-6-yl)-2-(methylamino)butan-1-one hydrochloride] registered an EC50 of over 30 µM.

In the case of `CNC(C)C(=O)c1ccc2occc2c1` (single isomer, unassigned; (+)) [(+)-BK-5-MAPB, 1-(benzofuran-5-yl)-2-(methylamino) propan-1-one], the results for the IC50 in data set [1] (setting [5]) and in data set [2] (SERT IC50 (μM)) were 2090 ± 151 nM and 38 µM, respectively. Besides, the “Hill Coef.” value at 5-HT1BR came out at 1.05. Moreover, the results for the EC50 (at 5-HT1BR (5-HT1BR EC50 (μM)); in data set [3] (setting [6])) were 3.07 µM and 439 ± 72.5 nM, respectively. This molecule also displayed a Ki in data set [2] (SERT Ki (μM)) of 17 µM.

With `CCC(NC)C(=O)c1ccc2ccoc2c1` (single isomer, unassigned; (+)) [(+)-BK-6-MBPB, 1-(benzofuran-6-yl)-2-(methylamino)butan-1-one], the EC50 at 5-HT1BR (5-HT1BR EC50 (μM)) was over 30 µM. In data set [2] (SERT IC50 (μM)), this molecule registered an IC50 of 29 µM. Moreover, the affinity in data set [2] (SERT Ki (μM)), expressed as Ki, was 13 µM.

For the molecule `CCC(NC)C(=O)c1ccc2ccoc2c1` (single isomer, unassigned; (-)) [(−)-BK-6-MBPB, 1-(benzofuran-6-yl)-2-(methylamino)butan-1-one], the “Hill Coef.” value at 5-HT1BR was found to be 1.9551. In addition, the EC50 on 5-HT1BR (5-HT1BR EC50 (μM)) is 7.52 µM. Also, the IC50 in data set [2] (SERT IC50 (μM)) is 3.7 µM. In data set [2] (SERT Ki (μM)), affinity was put at a Ki of 1.7 µM.

In the case of Fumaric, the “PXRD Result” value in data set [4] (solvent Acetone), in data set [4] (solvent MeOH:water 90:10) and in data set [4] (solvent THF) was “N/A (gel)” throughout.

Consider `O=C(O)/C=C\C(=O)O` [Maleic], for which the “PXRD Result” value in data set [4] (solvent Acetone), in data set [4] (solvent EtOH:water 90:10), in data set [4] (solvent MeOH:water 90:10) and in data set [4] (solvent THF) was “N/A (gel)” in each case.

For `CNC(C)C(=O)c1ccc2ccoc2c1` (racemic) [rac-BK-6-MAPB, 1-(benzofuran-6-yl)-2-(methylamino)propan-1-one hydrochloride], the “Hill Coef.” value at 5-HT1BR amounted to 0.99. Further, the response at 5-HT1BR (5-HT1BR EC50 (μM)) was half-maximal at 0.537 µM (EC50).

Regarding `N=C(N)NCCC[C@H](N)C(=O)O` [L-Arginine], the “PXRD Result” value in data set [4] (solvent Acetone), in data set [4] (solvent EtOH:water 90:10), in data set [4] (solvent MeOH:water 90:10) and in data set [4] (solvent THF) was “N/A (gel)” throughout.

With `CS(=O)(=O)O` [Methane Sulfonic], the “PXRD Result” value in data set [4] (solvent Acetone), in data set [4] (solvent EtOH:water 90:10), in data set [4] (solvent MeOH:water 90:10) and in data set [4] (solvent THF) was “N/A (gel)” in each case.

`CCC(NC)C(=O)c1ccc2occc2c1` (single isomer, unassigned; (+)) [(+)-BK-5-MBPB, 1-(benzofuran-5-yl)-2-(methylamino) butan-1-one]: the EC50 on 5-HT1BR (5-HT1BR EC50 (μM)) was over 30 µM. This molecule had an IC50 in data set [2] (SERT IC50 (μM)) of 6.5 µM. This molecule displayed a Ki in data set [2] (SERT Ki (μM)) of 3 µM.

Turning to `CNC(C)C(=O)c1ccc2occc2c1` (racemic) [rac-BK-5-MAPB, 1-(benzofuran-5-yl)-2-(methylamino)propan-1-one hydrochloride], the “Hill Coef.” value on 5-HT1BR turned out to be 0.91. Further, the response on 5-HT1BR (5-HT1BR EC50 (μM)) was half-maximal at 0.14 µM (EC50).

In the case of `CNC(C)C(=O)c1ccc2occc2c1` (single isomer, unassigned; (-)) [(−)-BK-5-MAPB, 1-(benzofuran-5-yl)-2-(methylamino) propan-1-one], the IC50 turned out to be 284 ± 11.9 nM in data set [1] (setting [5]) and 6.9 µM in data set [2] (SERT IC50 (μM)). Besides, at 5-HT1BR, the “Hill Coef.” value is listed as 1.5. Moreover, the EC50 at 5-HT1BR (5-HT1BR EC50 (μM)) was 0.0777 µM; in data set [3] (setting [6]), 80 ± 13.7 nM. Besides, the Ki in data set [2] (SERT Ki (μM)) came out at 3.2 µM.

For `NCCCC[C@H](N)C(=O)O` [L-Lysine], the “PXRD Result” value is recorded as “N/A (gel)” in data set [4] (solvent Acetone), “N/A (gel)” in data set [4] (solvent EtOH:water 90:10), “N/A (gel)” in data set [4] (solvent MeOH:water 90:10) and “L-Lysine” in data set [4] (solvent THF).

On to `CCC(NC)C(=O)c1ccc2occc2c1` (racemic) [rac-BK-5-MBPB, 1-(benzofuran-5-yl)-2-(methylamino)butan-1-one hydrochloride], for which the “Hill Coef.” value on 5-HT1BR was determined as 1.01. The molecule also displayed an EC50 at 5-HT1BR (5-HT1BR EC50 (μM)) of 19.6 µM.

On to `O=C(O)CCC(=O)O` [Succinic], for which the “PXRD Result” value in data set [4] (solvent Acetone), in data set [4] (solvent EtOH:water 90:10), in data set [4] (solvent MeOH:water 90:10) and in data set [4] (solvent THF) was “N/A (gel)” in each case.

For the molecule `O=[N+]([O-])O` [HNO3], the “PXRD Result” value in data set [4] (solvent Acetone), in data set [4] (solvent EtOH:water 90:10), in data set [4] (solvent MeOH:water 90:10) and in data set [4] (solvent THF) was “N/A (gel)” each time.

As for `CCC(NC)C(=O)c1ccc2occc2c1` (single isomer, unassigned; (-)) [(−)-BK-5-MBPB, 1-(benzofuran-5-yl)-2-(methylamino) butan-1-one], the “Hill Coef.” value at 5-HT1BR is on record as 1.6241. Also, the EC50 at 5-HT1BR (5-HT1BR EC50 (μM)) was found to be 6.61 µM. For the same molecule, the IC50 in data set [2] (SERT IC50 (μM)) amounted to 1.6 µM. This molecule also gave a Ki in data set [2] (SERT Ki (μM)) of 0.72 µM.

Take `CNC(C)C(=O)c1ccc2occc2c1` (single isomer, unassigned) [Enantiomer 2 BK-5-MAPB, 1-(benzofuran-5-yl)-2-(methylamino) propan-1-one]: the EC50 at 5-HT1BR (5HT1B Agonist (μM)) was determined as 3.07 µM.

With “1-(benzofuran-6-yl)-N-methylbutan-2-amine [Compound S-6-MBPB]”, the IC50 was 217 ± 45.8 nM in data set [1] (setting [7]) and 2.7 µM in data set [2] (read-out: SERT IC50). Moreover, the Ki in data set [2] (read-out: SERT Ki) was found to be 1.2 µM. Further, the EC50 in data set [3] (setting [8]) came to 54.1 ± 33.9 nM.

For the molecule `CNC(C)C(=O)c1ccc2occc2c1` (single isomer, unassigned) [Enantiomer 1 BK-5-MAPB, 1-(benzofuran-5-yl)-2-(methylamino) propan-1-one], the EC50 at 5-HT1BR (5HT1B Agonist (μM)) turned out to be 0.08 µM.

As to `CNC(C)C(=O)c1ccc2ccoc2c1` (single isomer, unassigned; (+)) [(+)-BK-6-MAPB, 1-(benzofuran-6-yl)-2-(methylamino) propan-1-one], in data set [1] (setting [5]), the IC50 was 5470 ± 424 nM. The EC50 was over 10 µM at 5-HT1BR (5-HT1BR EC50 (μM)) and 1280 ± 268 nM in data set [3] (setting [6]).
